Results: PubChem BioAssay (NCI)
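Cultured in 96-well plates, cells were exposed to test compound for 48 hours across five concentrations. GI50 marks 50% less growth. TGI: concentration producing complete growth inhibition.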

Experiments:
Assay in all cases: DTP human tumour cell line panel, 48 h
NCI-H23 lung = tested on: NCI-H23 lung
SK-OV-3 ovarian = tested on: SK-OV-3 ovarian
SK-MEL-28 melanoma = tested on: SK-MEL-28 melanoma
SNB-19 CNS = tested on: SNB-19 CNS
MOLT-4 leukemia = tested on: MOLT-4 leukemia
HOP-62 NSCLC = tested on: HOP-62 NSCLC
HCC-2998 colon = tested on: HCC-2998 colon
RXF 393 renal = tested on: RXF 393 renal
T-47D breast = tested on: T-47D breast
HS 578T breast = tested on: HS 578T breast

Structure (SMILES) | TGI (NCI-H23 lung) | TGI (SK-OV-3 ovarian) [µM] | TGI (SK-MEL-28 melanoma) | TGI (SNB-19 CNS) | TGI (MOLT-4 leukemia) | TGI (HOP-62 NSCLC) | TGI (HCC-2998 colon) | TGI (RXF 393 renal) | GI50 (SK-OV-3 ovarian) [µM] | GI50 (T-47D breast) [µM] | TGI (T-47D breast) [µM] | GI50 (MOLT-4 leukemia) | GI50 (HOP-62 NSCLC) | TGI (HS 578T breast) [µM] | GI50 (NCI-H23 lung) | GI50 (SK-MEL-28 melanoma) | GI50 (SNB-19 CNS) | GI50 (HCC-2998 colon) | GI50 (RXF 393 renal) | GI50 (HS 578T breast) [µM]
CCCS(=O)(=O)/C(=C(\c1ccc(Br)cc1)S(=O)(=O)CCC)c1ccc(Br)cc1 | > 10 µM | > 10 | > 10 µM | > 10 µM | > 10 µM | > 10 µM | > 10 µM | > 10 µM | – | – | – | – | – | – | – | – | – | – | – | –
COc1ccc2nc3cc(Cl)ccc3c(NCCN)c2c1 | – | 3.26 | – | – | 3.68 µM | 3.03 µM | – | – | 1.81 | 1.83 | 3.59 | 1.25 µM | 1.58 µM | – | – | – | – | – | – | –
CO[C@H]1C=C[C@@]23c4cc5c(cc4CO[C@]2(O)CN(C)[C@H]3C1)OCO5 | > 100 µM | > 100 | > 100 µM | > 100 µM | > 100 µM | – | > 100 µM | – | – | – | > 100 | – | – | > 100 | – | – | – | – | – | –
CC(=O)O.[Au].c1ccc([PH+](c2ccccc2)c2ccccc2)cc1 | 6.89 µM | 29.2 | 3.66 µM | 15.8 µM | 4.17 µM | 27.7 µM | 15.2 µM | 2.86 µM | 15.8 | – | – | 1.61 µM | 13.7 µM | – | 2.36 µM | 1.63 µM | 4.11 µM | 7 µM | 1.42 µM | –
C/C=C1/C(=C/c2[nH]c(/C=c3\[nH]/c(=C/C4=NC(=O)C(CC)=C4C)c(C)c3CCC(=O)O)c(CCC(=O)O)c2C)NC(=O)C1C (stereo not given) | > 150 µg/mL | – | > 150 µg/mL | > 150 µg/mL | > 150 µg/mL | > 150 µg/mL | > 150 µg/mL | > 150 µg/mL | – | – | – | > 150 µg/mL | > 150 µg/mL | – | > 150 µg/mL | > 150 µg/mL | > 150 µg/mL | > 150 µg/mL | > 150 µg/mL | –
COC(=O)C(=O)C(C(=O)C=C(C)C)C(=O)C(=O)Nc1ccc(C)cc1C (stereo not given) | > 100 µM | > 100 | > 100 µM | > 100 µM | > 100 µM | > 100 µM | > 100 µM | > 100 µM | – | – | – | – | – | – | – | – | – | – | – | –
c1cc[c]([Pb]([c]2ccccc2)[c]2ccccc2)cc1 | 15.8 µM | 38.2 | 36.6 µM | 38.7 µM | 71.7 µM | 79.3 µM | 37.3 µM | – | 11.2 | – | – | 15.7 µM | 36.9 µM | – | 3.34 µM | 16.5 µM | 16.5 µM | 14.8 µM | – | –
CN(C)C(c1ccccc1)C(O)c1ccccc1 (stereo not given) | > 100 µM | > 100 | > 100 µM | > 100 µM | > 100 µM | > 100 µM | > 100 µM | > 100 µM | – | – | – | – | – | – | – | – | – | – | – | –
N#CCC(=O)NC1C2CC3CC(C2)CC1C3 (stereo not given) | 32.6 µM | 78.6 | 43.3 µM | 32.5 µM | > 100 µM | 41.7 µM | 31.9 µM | 30.2 µM | – | – | – | – | – | – | – | – | – | – | – | –
OC/C=C(\I)CCCOCOCc1ccccc1 | > 100 µM | > 100 | > 100 µM | > 100 µM | 13.1 µM | > 100 µM | > 100 µM | 72.3 µM | – | – | – | – | – | – | – | – | – | – | – | –
C=C1C(=O)O[C@H]2[C@H]1CC/C(COC(=O)c1cc3ccccc3s1)=C\CC[C@@]1(C)O[C@@H]21 | 3.84 µM | 26.8 | 3.57 µM | 4.97 µM | 7.69 µM | 3.42 µM | 3.23 µM | 2.66 µM | 13.9 | – | – | 1.88 µM | 1.81 µM | 8.52 | 1.74 µM | 1.76 µM | 2.09 µM | 1.75 µM | 1.23 µM | 2.89
Cc1[nH]c2ccccc2c1C1Cc2ccccc2N1C(=O)/C(Cl)=C/c1ccccc1 (stereo not given) | > 100 µM | > 100 | > 100 µM | > 100 µM | > 100 µM | > 100 µM | > 100 µM | 89 µM | – | – | – | – | – | – | – | – | – | – | – | –
CCCCCCC(=O)C/C(=N/NC(N)=S)C(=O)NC1C2CC3CC(C2)CC1C3 (stereo not given) | > 100 µM | – | > 100 µM | > 100 µM | > 100 µM | > 100 µM | > 100 µM | > 100 µM | – | – | – | – | – | – | – | – | – | – | – | –
CC(=O)N1C/C(=C\c2ccc(N(C)C)cc2)C(=O)/C(=C/c2ccc(N(C)C)cc2)C1 | > 100 µM | > 100 | > 100 µM | > 100 µM | > 100 µM | > 100 µM | > 100 µM | > 100 µM | – | – | – | – | – | – | – | – | – | – | – | –
COc1cc2c3c(n(CCCCOC(=O)C(Cl)(Cl)Cl)c(=O)c2cc1OC)-c1cc2c(cc1C3=O)OCO2 | > 100 µM | > 100 | > 100 µM | > 100 µM | > 100 µM | > 100 µM | – | – | > 100 | > 100 | > 100 | 5.67 µM | 29.3 µM | > 100 | 92 µM | > 100 µM | > 100 µM | – | – | 94.7
Cc1nc2ccccc2c(=O)n1-c1ccccc1F | > 100 µM | > 100 | > 100 µM | > 100 µM | > 100 µM | > 100 µM | > 100 µM | > 100 µM | – | – | – | – | – | – | – | – | – | – | – | –
CC(C)c1cc2c(O)c(c1)Cc1cc(C(C)C)cc(c1O)Cc1cc(C(C)C)cc(c1O)Cc1cc(C(C)C)cc(c1O)C2 | > 100 µM | > 100 | – | > 100 µM | > 100 µM | > 100 µM | – | > 100 µM | – | – | – | – | – | – | – | – | – | – | – | –
CNc1nc(N)c(N=O)c(Nc2ccc(Br)cc2)n1 | > 100 µM | – | > 100 µM | > 100 µM | > 100 µM | > 100 µM | > 100 µM | > 100 µM | – | – | – | – | – | 65 | – | – | – | – | – | –
FC(F)(F)c1nc(-c2ccccc2)oc1Sc1nnc(Sc2oc(-c3ccccc3)nc2C(F)(F)F)s1 | 67.3 µM | > 100 | > 93.8 µM | > 100 µM | 17 µM | > 100 µM | > 100 µM | 49.3 µM | – | – | – | – | – | – | – | – | – | – | – | –
C=C(C)C1CCC2(C(=O)O)CCC3(C)C(CCC4C5(C)CCC(OC(=O)NCc6ccccc6)C(C)(C)C5CCC43C)C12 (stereo not given) | 44 µM | > 100 | > 100 µM | > 100 µM | > 100 µM | > 100 µM | > 100 µM | – | 27.8 | 3.19 | > 100 | 2.79 µM | 3.87 µM | > 100 | 2.31 µM | 1.08 µM | 25.3 µM | 2.8 µM | – | 3.62
